According to patent publication US20230365582A1, “NOVEL COMPOUNDS HAVING INHIBITORY ACTIVITY ON PROSTAGLANDIN E2 RECEPTOR AND USES THEREOF” (KANAPH THERAPEUTICS INC., priority 2020, published 2023):

Experiments:
hEP4 = target: T1, hEP4 (Homo sapiens, UniProt P35408); experiment: hEP4 cAMP assay; format: cell-based; details: HEK293 cells overexpressing hEP4; PGE2 agonist 20 nM; graded per Table 21; read-out: IC50 (nM) EP4 cAMP
T1 construct: expressed in transfected cells; host or cells: HEK293
Description: (§1) HEK293 cells overexpressing hEP4 were cultured in growth medium (GM: MEM (Gibco™, 11095080)/10% HI FBS (Gibco™, 10082147)/1% penicillin/streptomycin). Before the experiment, the growth medium was removed, and starvation medium (HBSS (Gibco™ 14025076)/10% GM) was added. Thereafter, the cells were incubated for 4 hours. HEK293 cells harboring hEP4 were detached from the culture dish with a non-enzymatic cell dissociation buffer (Gibco™, 15040066). The cells were resuspended in assay buffer (AB: HBSS, 0.1% BSA stabilizer, 0.5 mM IBMX, 5 mM HEPES).
(§2) 1,000 cells in 5 μL of AB were seeded per well in a 384 well plate (Corning®, 3570), and stock solutions of test compounds were prepared at a concentration of 1 mM in DMSO and serially diluted in DMSO to the concentration required for the inhibition dose response curve (test concentration range of 10 μM-0.001 nM). PGE2 (Sigma, P0409, stock solution: 100 μM) was used as an agonist at a final concentration of 20 nM corresponding to EC50-80. 2.5 μL of the diluted compound and 2.5 μL of PGE2 (20 nM final concentration) were transferred to the assay plate, and then the plate was incubated at room temperature for 18.5 minutes.
(§3) 5 μL of each donor (Eu-cAMP tracer) and acceptor (ULight-anti-cAMP) was added, and the plate was incubated in the dark for 1 hour at room temperature, and then a Varioskan LUX multimode microplate reader was used to obtain the results (excitation: 334 nm, emission: 615 and 665 nm). The resulting FRET fluorescence value (665 nm/615 nm*10000) was converted and then calculated as a percentage of cAMP compared to the DMSO control value. IC50 values and curves were generated with GraphPad Prism software using log (inhibitor) versus response-variable slope (4 parameters), and the median of multiple experiments was taken as the experiment result.

hEP2 = target: T2, hEP2 (Homo sapiens, UniProt P43116); experiment: hEP2 cAMP assay; format: cell-based; details: HEK293 cells overexpressing hEP2; PGE2 agonist 400 pM; graded per Table 21; read-out: IC50 (nM) EP2 cAMP
T2 construct: expressed in transfected cells; host or cells: HEK293
T2 sequence (P43116 whole entry): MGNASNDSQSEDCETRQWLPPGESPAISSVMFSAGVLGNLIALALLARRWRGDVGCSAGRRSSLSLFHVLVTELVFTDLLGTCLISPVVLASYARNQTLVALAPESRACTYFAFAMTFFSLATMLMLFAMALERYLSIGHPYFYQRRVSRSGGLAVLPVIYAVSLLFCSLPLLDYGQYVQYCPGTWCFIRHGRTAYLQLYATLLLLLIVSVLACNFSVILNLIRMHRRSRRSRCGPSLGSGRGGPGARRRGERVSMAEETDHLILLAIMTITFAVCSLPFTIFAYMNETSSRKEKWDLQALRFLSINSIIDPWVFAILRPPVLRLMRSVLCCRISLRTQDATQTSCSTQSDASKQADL
Description: as §1, with “overexpressing hEP2” for “overexpressing hEP4”, “(HBSS (Gibco™,” for “(HBSS (Gibco™”, “hours. The” for “hours.”, “harboring hEP2” for “harboring hEP4”
as §2, with “(Corning™,” for “(Corning®,”, “1” for “100”, “400 pM” for “20 nM”, “(400 pM” for “(20 nM”, “12” for “18.5”
as §3, with “relative” for “compared”, “slopes” for “slope”

T1 sequence (P35408 whole entry): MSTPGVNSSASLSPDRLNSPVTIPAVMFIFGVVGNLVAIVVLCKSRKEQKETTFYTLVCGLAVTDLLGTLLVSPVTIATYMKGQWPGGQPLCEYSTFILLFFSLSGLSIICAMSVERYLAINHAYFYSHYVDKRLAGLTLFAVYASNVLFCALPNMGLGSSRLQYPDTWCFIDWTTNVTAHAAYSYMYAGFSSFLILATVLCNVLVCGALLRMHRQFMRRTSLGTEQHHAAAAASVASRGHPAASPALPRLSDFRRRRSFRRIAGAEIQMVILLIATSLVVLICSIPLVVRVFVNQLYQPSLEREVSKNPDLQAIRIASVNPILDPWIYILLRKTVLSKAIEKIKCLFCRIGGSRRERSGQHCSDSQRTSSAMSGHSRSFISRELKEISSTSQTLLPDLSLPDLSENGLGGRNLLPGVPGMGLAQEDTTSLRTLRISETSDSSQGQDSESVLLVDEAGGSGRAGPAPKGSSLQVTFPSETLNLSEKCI

| SMILES | IC50 (hEP4) [nM] | IC50 (hEP2) [nM] |
| --- | --- | --- |
| Cc1sc(C)c(C(=O)N[C@H]2CC3(C2)C[C@H](C(=O)O)C3)c1Cc1ccc(-c2ccccc2)cc1 (single isomer, unassigned) [Example 1a] | > 10000 | > 10000 |
| Cc1sc(C)c(C(=O)N[C@H]2CC3(C2)C[C@H](C(=O)O)C3)c1Cc1ccc(-c2ccccc2)cc1 (single isomer, unassigned) [Example 1b] | < 500 | 500 to 5000 |
| COc1cc(F)cc(-c2ccc(Cc3c(C)sc(C)c3C(=O)N[C@H]3CC4(C3)C[C@H](C(=O)O)C4)cc2)c1 (single isomer, unassigned) [Example 34a] | 500 to 5000 | 5000 to 10000 |
| COc1cc(F)cc(-c2ccc(Cc3c(C)sc(C)c3C(=O)N[C@H]3CC4(C3)C[C@H](C(=O)O)C4)cc2)c1 (single isomer, unassigned) [Example 34b] | < 500 | < 500 |
| O=C(N[C@H]1CC2(C1)C[C@H](C(=O)O)C2)c1csc2ccn(Cc3ccc(-c4ccccc4)cc3)c12 (single isomer, unassigned) [Example 79a] | 500 to 5000 | 500 to 5000 |
| O=C(N[C@H]1CC2(C1)C[C@H](C(=O)O)C2)c1csc2ccn(Cc3ccc(-c4ccccc4)cc3)c12 (single isomer, unassigned) [Example 79b] | < 500 | < 500 |
| Cc1sc2ccn(Cc3ccc(-c4ccccc4)cc3)c2c1C(=O)N[C@H]1CC2(C1)C[C@H](C(=O)O)C2 (single isomer, unassigned) [Example 80a] | > 10000 | 500 to 5000 |
| Cc1sc2ccn(Cc3ccc(-c4ccccc4)cc3)c2c1C(=O)N[C@H]1CC2(C1)C[C@H](C(=O)O)C2 (single isomer, unassigned) [Example 80b] | < 500 | – |
| Cc1sc(C)c(C(=O)NC2CC3(C2)CC(C(=O)O)C3)c1Cc1ccc(-c2ccccc2)cc1 (stereo not shown) [Example 1, 6-(4-([1,1′-biphenyl]-4-ylmethyl)-2,5-dimethylthiophene-3-carboxamido)spiro[3.3]heptane-2-carboxylic acid] | < 500 | 500 to 5000 |
| Cc1ccc(Cc2c(C)sc(C)c2C(=O)NC2CC3(C2)CC(C(=O)O)C3)cc1 (stereo not shown) [Example 2, 6-(2,5-dimethyl-4-(4-methylbenzyl)thiophene-3-carboxamido)spiro[3.3]heptane-2-carboxylic acid] | > 10000 | > 10000 |
| Cc1sc(C)c(C(=O)NC2CC3(C2)CC(C(=O)O)C3)c1Cc1cccc(-c2ccccc2)c1 (stereo not shown) [Example 3, 6-(4-([1,1′-biphenyl]-3-ylmethyl)-2,5-dimethylthiophene-3-carboxamido)spiro[3.3]heptane-2-carboxylic acid] | 5000 to 10000 | > 10000 |
| Cc1sc(C)c(C(=O)NC2CC3(C2)CC(C(=O)O)C3)c1Cc1ccccc1-c1ccccc1 (stereo not shown) [Example 4, 6-(4-([1,1′-biphenyl]-2-ylmethyl)-2,5-dimethylthiophene-3-carboxamido)spiro[3.3]heptane-2-carboxylic acid] | > 10000 | > 10000 |
| Cc1sc(C)c(C(=O)NC2CC3(C2)CC(C(=O)O)C3)c1Cc1ccc(Oc2ccccc2)cc1 (stereo not shown) [Example 5, 6-(2,5-dimethyl-4-(4-phenoxybenzyl)thiophene-3-carboxamido)spiro[3.3]heptane-2-carboxylic acid] | 5000 to 10000 | > 10000 |
| Cc1sc(C)c(C(=O)NC2CC3(C2)CC(C(=O)O)C3)c1CCc1ccc(-c2ccccc2)cc1 (stereo not shown) [Example 6, 6-(4-(2-([1,1′-biphenyl]-4-yl)ethyl)-2,5-dimethylthiophene-3-carboxamido)spiro[3.3]heptane-2-carboxylic acid] | > 10000 | > 10000 |
| Cc1sc(C)c(C(=O)NC2CC3(C2)CC(C(=O)O)C3)c1Cc1ccc(-c2ccccc2)cc1F (stereo not shown) [Example 7, 6-(4-((3-fluoro-[1,1′-biphenyl]-4-yl)methyl)-2,5-dimethylthiophene-3-carboxamido)spiro[3.3]heptane-2-carboxylic acid] | < 500 | 500 to 5000 |
| Cc1sc(C)c(C(=O)NC2CC3(C2)CC(C(=O)O)C3)c1Cc1ccc(-c2ccccc2)c(N)c1 (stereo not shown) [Example 8, 6-(4-((2-amino-[1,1′-biphenyl]-4-yl)methyl)-2,5-dimethylthiophene-3-carboxamido)spiro [3.3]heptane-2-carboxylic acid] | 500 to 5000 | > 10000 |
| Cc1sc(C)c(C(=O)NC2CC3(C2)CC(C(=O)O)C3)c1Cc1ccc(N2CCOCC2)cc1 (stereo not shown) [Example 9, 6-(2,5-dimethyl-4-(4-morpholinobenzyl)thiophene-3-carboxamido)spiro[3.3]heptane-2-carboxylic acid] | > 10000 | > 10000 |
| Cc1sc(C)c(C(=O)c2ccc(-c3ccccc3)cc2)c1C(=O)NC1CC2(C1)CC(C(=O)O)C2 (stereo not shown) [Example 10, 6-(4-([1,1′-biphenyl]-4-carbonyl)-2,5-dimethylthiophene-3-carboxamido)spiro[3.3]heptane-2-carboxylic acid] | 500 to 5000 | > 10000 |
| Cc1sc(C)c(C(O)c2ccc(-c3ccccc3)cc2)c1C(=O)NC1CC2(C1)CC(C(=O)O)C2 (stereo not shown) [Example 11, 6-(4-([1,1′-biphenyl]-4-yl(hydroxy)methyl)-2,5-dimethylthiophene-3-carboxamido)spiro[3.3]heptane-2-carboxylic acid] | < 500 | > 10000 |
| COC(c1ccc(-c2ccccc2)cc1)c1c(C)sc(C)c1C(=O)NC1CC2(C1)CC(C(=O)O)C2 (stereo not shown) [Example 12, 6-(4-([1,1′-biphenyl]-4-yl(methoxy)methyl)-2,5-dimethylthiophene-3-carboxamido)spiro[3.3]heptane-2-carboxylic acid] | > 10000 | > 10000 |
| O=C(NC1CC2(C1)CC(C(=O)O)C2)c1cscc1Cc1ccc(-c2ccccc2)cc1 (stereo not shown) [Example 13, 6-(4-([1,1′-biphenyl]-4-ylmethyl)thiophene-3-carboxamido)spiro[3.3]heptane-2-carboxylic acid] | 500 to 5000 | 500 to 5000 |
| Cc1scc(Cc2ccc(-c3ccccc3)cc2)c1C(=O)NC1CC2(C1)CC(C(=O)O)C2 (stereo not shown) [Example 14, 6-(4-([1,1′-biphenyl]-4-ylmethyl)-2-methylthiophene-3-carboxamido)spiro[3.3]heptane-2-carboxylic acid] | 500 to 5000 | 500 to 5000 |
| O=C(NC1CC2(C1)CC(C(=O)O)C2)c1csc(Br)c1Cc1ccc(-c2ccccc2)cc1 (stereo not shown) [Example 15, 6-(4-([1,1′-biphenyl]-4-ylmethyl)-5-bromothiophene-3-carboxamido)spiro[3.3]heptane-2-carboxylic acid] | < 500 | < 500 |
| O=C(NC1CC2(C1)CC(C(=O)O)C2)c1c(Br)sc(Br)c1Cc1ccc(-c2ccccc2)cc1 (stereo not shown) [Example 16, 6-(4-([1,1′-biphenyl]-4-ylmethyl)-2,5-dibromothiophene-3-carboxamido)spiro[3.3]heptane-2-carboxylic acid] | 500 to 5000 | > 10000 |
| O=C(NC1CC2(C1)CC(C(=O)O)C2)c1c(Cl)sc(Cl)c1Cc1ccc(-c2ccccc2)cc1 (stereo not shown) [Example 17, 6-(4-([1,1′-biphenyl]-4-ylmethyl)-2,5-dichlorothiophene-3-carboxamido)spiro[3.3]heptane-2-carboxylic acid] | < 500 | 5000 to 10000 |
